These results are taken from article PMC9120017, “Inhibition mechanism of the chloride channel TMEM16A by the pore blocker 1PBC” (Nature Communications, 2022).

Like-named read-outs stand apart in the source and are kept apart here.

In the assay the target is T1, mouse TMEM16B (Mus musculus, UniProt Q8CFW1).
T1 construct: expressed in transfected cells; host or cells: HEK293T
T1 sequence (Q8CFW1 1-1002): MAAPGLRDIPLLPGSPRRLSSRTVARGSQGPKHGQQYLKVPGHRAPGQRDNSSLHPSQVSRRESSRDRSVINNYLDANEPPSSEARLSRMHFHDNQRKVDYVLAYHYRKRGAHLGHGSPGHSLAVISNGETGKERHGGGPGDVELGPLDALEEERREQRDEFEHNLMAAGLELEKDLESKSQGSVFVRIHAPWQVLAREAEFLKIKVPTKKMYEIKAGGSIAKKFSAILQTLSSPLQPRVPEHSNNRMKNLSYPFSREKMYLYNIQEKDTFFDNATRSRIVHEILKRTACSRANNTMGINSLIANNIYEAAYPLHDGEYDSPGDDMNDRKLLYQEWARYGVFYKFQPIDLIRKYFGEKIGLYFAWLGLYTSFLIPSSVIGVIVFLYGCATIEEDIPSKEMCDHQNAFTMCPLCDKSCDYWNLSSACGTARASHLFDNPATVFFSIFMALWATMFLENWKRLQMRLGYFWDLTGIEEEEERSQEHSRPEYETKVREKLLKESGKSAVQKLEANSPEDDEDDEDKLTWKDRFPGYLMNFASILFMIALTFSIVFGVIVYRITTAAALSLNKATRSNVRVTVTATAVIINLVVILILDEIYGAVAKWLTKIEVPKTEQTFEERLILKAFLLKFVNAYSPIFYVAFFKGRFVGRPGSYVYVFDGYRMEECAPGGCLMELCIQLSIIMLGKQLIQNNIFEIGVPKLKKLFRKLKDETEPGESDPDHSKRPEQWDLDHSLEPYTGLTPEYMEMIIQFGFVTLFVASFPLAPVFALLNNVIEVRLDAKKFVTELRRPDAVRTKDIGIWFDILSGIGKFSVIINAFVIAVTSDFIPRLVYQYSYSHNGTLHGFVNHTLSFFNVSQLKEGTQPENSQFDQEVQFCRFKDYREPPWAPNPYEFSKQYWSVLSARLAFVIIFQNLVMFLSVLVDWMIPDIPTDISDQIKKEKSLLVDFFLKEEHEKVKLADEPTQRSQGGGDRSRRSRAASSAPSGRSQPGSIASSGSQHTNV
Briefly: Inside-out patch recording of 1PBC block, TMEM16B. The following applies: 15 µM Ca2+; for remaining activity at 3 µM: 3 µM 1PBC; for remaining activity at 3 µM / remaining activity at 10 µM / remaining activity at 30 µM / remaining activity at 100 µM: read-out: I/Imax; for remaining activity at 10 µM: 10 µM 1PBC; for remaining activity at 30 µM: 30 µM 1PBC; for remaining activity at 100 µM: 100 µM 1PBC. It counts as cell-based. The method, then: HEK293T cells (ATCC CRL-1573) were maintained in Dulbecco’s modified Eagle’s medium (DMEM; Sigma-Aldrich) supplemented with 10 U ml^−1 penicillin, 0.1 mg ml^−1 streptomycin (Sigma-Aldrich), 2 mM L-glutamine (Sigma-Aldrich), and 10% FBS (Sigma-Aldrich) in a humidified atmosphere containing 5% CO2 at 37 °C. HEK293S GnTI^− cells (ATCC CRL-3022) were maintained in HyClone HyCell TransFx-H medium (GE Healthcare) supplemented with 10 U ml^−1 penicillin, 0.1 mg ml^−1 streptomycin, 4 mM L-glutamine, 0.15% poloxamer 188 (Sigma-Aldrich), and 1% FBS in an atmosphere containing 5% CO2 at 185 rpm at 37 °C. The ac splice variant of mouse TMEM16A (UniProt ID: Q8BHY3), mouse TMEM16B (UniProt ID: Q8CFW1), or mouse TMEM16F (UniProt ID: Q6P9J9) bearing a 3C cleavage site, a Venus YFP, a Myc tag, and a Streptavidin-binding peptide (SBP) downstream of the open reading frame in a modified pcDNA3.1 vector (Invitrogen) were used as described previously[21],[31]. Mutations were introduced using a modified QuikChange method[58] and were verified by sequencing.
HEK293T cells were transfected with 3–4 μg DNA per 6 cm Petri dish using the calcium phosphate co-precipitation method and were used within 24–96 h after transfection. Recordings were performed on inside-out patches excised from HEK293T cells expressing the construct of interest. Patch pipettes were pulled from borosilicate glass capillaries (O.D. 1.5 mm, I.D. 0.86 mm, Sutter Instrument) and were fire-polished with a microforge (Narishige) before use. Pipette resistance was typically 3–8 MΩ when filled with the recording solutions detailed below. Seal resistance was typically 4 GΩ or higher. Voltage-clamp recordings were made using Axopatch 200B, Digidata 1550, and Clampex 10.7 (Molecular Devices). Analog signals were filtered with the in-built 4-pole Bessel filter at 10 kHz and were digitized at 20 kHz. Solution exchange was achieved using a gravity-fed system through a theta glass pipette mounted on an ultra-fast piezo-driven stepper (Siskiyou). […] All recordings were performed at 20 °C.
A symmetrical ionic condition was used throughout. Stock solution with Ca^2+-EGTA contained 150 mM NaCl, 5.99 mM Ca(OH)2, 5 mM EGTA, and 10 mM HEPES at pH 7.40. Stock solution with EGTA contained 150 mM NaCl, 5 mM EGTA, and 10 mM HEPES at pH 7.40. Free Ca^2+ concentrations were adjusted by mixing the stock solutions at the required ratios calculated using the WEBMAXC program (http://web.stanford.edu/~cpatton/webmaxcS.htm). Patch pipettes were filled with the stock solution with Ca^2+-EGTA, which has a free Ca^2+ concentration of 1 mM. 1PBC (ChemBridge) stock was reconstituted in anhydrous DMSO (Sigma-Aldrich) at 100 mM and stored at −20 °C. Working solutions with 1PBC were prepared by serial dilution. Unless otherwise stated, experiments were performed at a saturating Ca^2+ concentration as shown in Supplementary Table 1 and the primary data were corrected for current rundown as described previously[21],[25].
Concentration-response relations, obtained from the ratio of the I-V plots before and after the application of the blocker, were fitted to the Hill equation,1 I/Imax=1/1+IC50/[blocker]^h where I/Imax is the normalized current responses, IC50 defines the concentration at which inhibition is at its half-maximum, and h is the Hill coefficient.

Regarding `N#Cc1c(C(F)(F)F)cc(O)n2c1nc1ccccc12` [1PBC], the “Block of the channel TMEM16B” value is reported as “blocks”. For the setting “+80 mV”, the remaining activity at 3 µM worked out at 55.6%, the remaining activity at 10 µM is 31%, the remaining activity at 30 µM worked out at 16.8% and the remaining activity at 100 µM was determined as 7.99%. For the setting “-80 mV”, the remaining activity at 3 µM is 89.9%, the remaining activity at 10 µM amounted to 70.1%, the remaining activity at 30 µM was determined as 43.9% and the remaining activity at 100 µM came to 20.5%.
